From patent publication US12404241B2 (Celgene Corporation, priority 2018, dated 2025) come the findings set out here.

Counter-ions that a name gives are not always drawn.

As usually defined, the DC50 is the concentration at which degradation of the target reaches its halfway point.

In this assay the target is T1, AR (Homo sapiens, UniProt P10275).
T1 construct: endogenous in cells; host or cells: VCaP cells
T1 sequence (P10275 1-920): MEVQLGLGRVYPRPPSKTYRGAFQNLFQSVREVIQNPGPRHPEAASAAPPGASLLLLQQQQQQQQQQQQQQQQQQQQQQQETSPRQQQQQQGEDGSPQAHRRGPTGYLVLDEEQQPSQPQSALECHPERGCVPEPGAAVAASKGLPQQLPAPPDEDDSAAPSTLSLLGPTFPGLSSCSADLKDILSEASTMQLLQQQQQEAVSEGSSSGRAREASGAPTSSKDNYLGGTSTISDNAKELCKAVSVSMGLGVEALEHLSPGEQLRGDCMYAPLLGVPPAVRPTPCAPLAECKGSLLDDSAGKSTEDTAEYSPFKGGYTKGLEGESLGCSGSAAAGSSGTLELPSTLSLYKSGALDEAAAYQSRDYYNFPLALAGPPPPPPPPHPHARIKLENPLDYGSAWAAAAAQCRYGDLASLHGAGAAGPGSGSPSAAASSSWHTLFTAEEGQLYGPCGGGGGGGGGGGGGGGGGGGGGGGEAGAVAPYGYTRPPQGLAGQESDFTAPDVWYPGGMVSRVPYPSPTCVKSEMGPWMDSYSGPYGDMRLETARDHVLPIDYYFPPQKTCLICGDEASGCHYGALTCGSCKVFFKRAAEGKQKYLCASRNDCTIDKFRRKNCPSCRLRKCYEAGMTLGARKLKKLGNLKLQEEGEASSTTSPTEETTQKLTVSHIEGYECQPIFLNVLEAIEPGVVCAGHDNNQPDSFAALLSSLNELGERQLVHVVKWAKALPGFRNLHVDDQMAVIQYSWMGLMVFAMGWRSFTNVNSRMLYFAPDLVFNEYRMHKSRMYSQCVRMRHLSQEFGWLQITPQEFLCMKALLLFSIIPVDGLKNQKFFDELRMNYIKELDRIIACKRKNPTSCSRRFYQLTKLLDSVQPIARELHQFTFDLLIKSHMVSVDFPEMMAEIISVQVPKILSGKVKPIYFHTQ
In words: VCAP AR Degradation Assay. In kind it is cell-based. The settings on record: for Y (AR degradation efficiency, % of DMSO control): class symbols *; for DC50: class symbols A-C, read-out: DC50. How it is done:
VCAP AR Degradation Assay. Test compounds were pre-dispensed into a Corning CellBind 96-well clear bottom plate (Cat #3300) using an acoustic dispenser to make a 10-point concentration series at 1:3 dilution for each compound. The final top concentration of each compound was 5 μM. DMSO at a final concentration of 0.1% was used as a control. VCaP cells cultured in DMEM with 8% fetal bovine serum (FBS) were seeded at 50K cells per well in a 200 μL volume into the compound plate and incubated at 37° C. in a CO2 incubator for 24 h. The medium was carefully removed from the cells and the plate was placed on ice. One hundred μL of ice-cold 1x cell lysis buffer from Cell Signaling Technologies (Cat #9803) was added to each well of the cells and the plate was incubated at 4° C. on a shaker for 1 h. Fifteen μL of cell lysate was used for AR ELISA detection using a PathScan Total Sandwich AR ELISA kit (Cell Signaling Technology, Cat #12580). AR levels in compound-treated wells were normalized to that of DMSO control and expressed as percent of control (PoC) (y). A Four Parameter Logistic Model (Sigmoidal Dose-Response Model) was used to determine the compound's DC50, and EC50, using the following equation:
[formula] • A=YMin (lowest AR level normalized to DMSO control in response to compound treatment, as determined by curve fit) • B=YMax (maximum AR level as determined by curve fit) • C=EC50 • D=Hill Slope • x=compound concentration • EC50=the concentration of compound when y=(YMax−YMin)/2 • DC50=the concentration of the compound when y=50% of DMSO control (50% AR degradation) • y=AR protein level normalized to DMSO control
The lowest measured AR level normalized to DMSO control in response to compound treatment, termed Y value, was used to characterize the compound-mediated AR degradation efficiency.

For `CCc1cc(N2C(=S)N(c3cnc(C#N)c(C(F)(F)F)c3)C(=O)C2(C)C)ccc1OCCN1CCN(CC(=O)Nc2cc(NC3CCC(=O)NC3=O)ccc2Cl)CC1` (single isomer, unassigned) [Example 47], the “Y (AR degradation efficiency, % of DMSO control)” value is given as “* (0<Y<=25%)” and the DC50 is below 100 nM.
The corresponding values for `N#Cc1ccc(N2C(=O)C3(CCOC3)N(c3ccc(OCCN4CCN(CC(=O)Nc5cc(Cl)cc(NC6CCC(=O)NC6=O)c5)CC4)c(F)c3)C2=S)cc1C(F)(F)F` (single isomer, unassigned) [Example 54, N-(3-chloro-5-(2,6-dioxopiperidin-3-ylamino)phenyl)-2-(4-(2-(4-(3-(4-cyano-3-(trifluoromethyl)phenyl)-4-oxo-2-thioxo-7-oxa-1,3-diazaspiro[4.4]nonan-1-yl)-2-fluorophenoxy)ethyl)piperazin-1-yl)acetamide] are “* (0<Y<=25%)” and below 100 nM.
The corresponding values for `N#Cc1ccc(N2C(=O)C3(CCOC3)N(c3ccc(OCCN4CCN(CC(=O)Nc5cc(Cl)cc(NC6CCC(=O)NC6=O)c5)CC4)c(F)c3)C2=S)cc1C(F)(F)F` (single isomer, unassigned) [Example 55, N-(3-chloro-5-(2,6-dioxopiperidin-3-ylamino)phenyl)-2-(4-(2-(4-(3-(4-cyano-3 (trifluoromethyl)phenyl)-4-oxo-2-thioxo-7-oxa-1,3-diazaspiro[4.4]nonan-1-yl)-2-fluorophenoxy)ethyl)piperazin-1-yl)acetamide] are “** (25%<Y<=35%)” and 100 to 500 nM.
The corresponding values for `CCc1cc(N2C(=S)N(c3cnc(C#N)c(C(F)(F)F)c3)C(=O)C2(C)C)ccc1OCCN1CCN([C@H](C)C(=O)Nc2cc(Cl)cc(NC3CCC(=O)NC3=O)c2)CC1` (single isomer, unassigned) [Example 113] are “* (0<Y<=25%)” and below 100 nM.
Consider `CCc1cc(N2C(=S)N(c3cnc(C#N)c(C(F)(F)F)c3)C(=O)C2(C)C)ccc1OCCN1CCN([C@@H](C)C(=O)Nc2cc(Cl)cc(NC3CCC(=O)NC3=O)c2)CC1` (single isomer, unassigned) [Example 114], for which the “Y (AR degradation efficiency, % of DMSO control)” value is recorded as “* (0<Y<=25%)” and the DC50 was below 100 nM.
In the case of `CCc1cc(N2C(=S)N(c3ccc(C#N)c(C(F)(F)F)c3)C(=O)C2(C)C)ccc1OC[C@H](C)N1C[C@@H](C)N(CC(=O)Nc2cccc(NC3CCC(=O)NC3=O)c2)[C@@H](C)C1` (single isomer, unassigned) [Example 236], the “Y (AR degradation efficiency, % of DMSO control)” value is recorded as “** (25%<Y<=35%)” and the DC50 is 100 to 500 nM.
The corresponding values for `CCc1cc(N2C(=S)N(c3ccc(C#N)c(C(F)(F)F)c3)C(=O)C2(C)C)ccc1OC[C@@H](C)N1C[C@@H](C)N(CC(=O)Nc2cccc(NC3CCC(=O)NC3=O)c2)[C@@H](C)C1` (single isomer, unassigned) [Example 237] are “** (25%<Y<=35%)” and 100 to 500 nM.
The corresponding values for `CCc1cc(N2C(=S)N(c3cnc(C#N)c(C(F)(F)F)c3)C(=O)C2(C)C)ccc1O[C@H](C)CN1C[C@@H](C)N(CC(=O)Nc2cccc(NC3CCC(=O)NC3=O)c2)[C@@H](C)C1` (single isomer, unassigned) [Example 239] are “* (0<Y<=25%)” and below 100 nM.
The corresponding values for `CCc1cc(N2C(=S)N(c3cnc(C#N)c(C(F)(F)F)c3)C(=O)C2(C)C)ccc1O[C@@H](C)CN1C[C@@H](C)N(CC(=O)Nc2cccc(NC3CCC(=O)NC3=O)c2)[C@@H](C)C1` (single isomer, unassigned) [Example 240] are “** (25%<Y<=35%)” and 100 to 500 nM.
Consider `CCc1cc(N2C(=S)N(c3ccc(C#N)c(C(F)(F)F)c3)C(=O)C2(C)C)ccc1O[C@H](C)CN1C[C@@H](C)N(CC(=O)Nc2cccc(NC3CCC(=O)NC3=O)c2)[C@@H](C)C1` (single isomer, unassigned) [Example 241], for which the “Y (AR degradation efficiency, % of DMSO control)” value is reported as “* (0<Y<=25%)” and the DC50 was 100 to 500 nM.
The corresponding values for `CCc1cc(N2C(=S)N(c3ccc(C#N)c(C(F)(F)F)c3)C(=O)C2(C)C)ccc1O[C@@H](C)CN1C[C@@H](C)N(CC(=O)Nc2cccc(NC3CCC(=O)NC3=O)c2)[C@@H](C)C1` (single isomer, unassigned) [Example 242] are “*** (35%<Y<50%)” and 500 to 1000 nM.
The corresponding values for `CC1(C)C(=O)N(c2ccc(C#N)c(C(F)(F)F)c2)C(=S)N1c1ccc(OCCN2CCN(CC(=O)Nc3cccc(NC4CCC(=O)NC4=O)c3)CC2)c(F)c1` (stereo not drawn) [Example 1, formate] are “*** (35%<Y<50%)” and below 100 nM.
Turning to `CC1(C)C(=O)N(c2cnc(C#N)c(C(F)(F)F)c2)C(=S)N1c1ccc(OCCN2CCN(CC(=O)Nc3cccc(NC4CCC(=O)NC4=O)c3)CC2)cc1` (stereo not drawn) [Example 2, hydrochloride], the “Y (AR degradation efficiency, % of DMSO control)” value is on record as “** (25%<Y<=35%)” and the DC50 is below 100 nM.
The corresponding values for `CC1(C)C(=O)N(c2ccc(C#N)c(C(F)(F)F)c2)C(=S)N1c1ccc(OCCN2CCN(CC(=O)Nc3cccc(NC4CCC(=O)NC4=O)c3)CC2)c(Cl)c1` (stereo not drawn) [Example 3, hydrochloride] are “* (0<Y<=25%)” and below 100 nM.
The corresponding values for `CC1(C)C(=O)N(c2ccc(C#N)c(C(F)(F)F)c2)C(=S)N1c1ccc(OCCN2CCN(CC(=O)Nc3cc(Cl)cc(NC4CCC(=O)NC4=O)c3)CC2)c(F)c1` (stereo not drawn) [Example 4, hydrochloride] are “* (0<Y<=25%)” and below 100 nM.
The corresponding values for `CC1(C)C(=O)N(c2cnc(C#N)c(C(F)(F)F)c2)C(=S)N1c1ccc(OCCN2CCN(CC(=O)Nc3cccc(NC4CCC(=O)NC4=O)c3)CC2)c(Cl)c1` (stereo not drawn) [Example 5, hydrochloride] are “* (0<Y<=25%)” and below 100 nM.
As for `N#Cc1ncc(N2C(=O)C3(CCC3)N(c3ccc(OCCN4CCN(CC(=O)Nc5cccc(NC6CCC(=O)NC6=O)c5)CC4)c(F)c3)C2=S)cc1C(F)(F)F` (stereo not drawn) [Example 6], the “Y (AR degradation efficiency, % of DMSO control)” value is listed as “** (25%<Y<=35%)” and the DC50 was below 100 nM.
The corresponding values for `N#Cc1ccc(N2C(=O)C3(CCC3)N(c3ccc(OCCN4CCN(CC(=O)Nc5cccc(NC6CCC(=O)NC6=O)c5)CC4)c(Cl)c3)C2=S)cc1C(F)(F)F` (stereo not drawn) [Example 7, hydrochloride] are “* (0<Y<=25%)” and below 100 nM.
The corresponding values for `N#Cc1ccc(N2C(=O)C3(CCC3)N(c3ccc(OCCN4CCN(CC(=O)Nc5cccc(NC6CCC(=O)NC6=O)c5)CC4)c(F)c3)C2=S)cc1C(F)(F)F` (stereo not drawn) [Example 8, hydrochloride] are “** (25%<Y<=35%)” and below 100 nM.
The corresponding values for `CC1(C)C(=O)N(c2ccc(C#N)c(C(F)(F)F)c2)C(=S)N1c1ccc(OCCN2CCN(CC(=O)Nc3cccc(NC4CCC(=O)NC4=O)c3)CC2)c(C2CC2)c1` (stereo not drawn) [Example 9, hydrochloride] are “* (0<Y<=25%)” and below 100 nM.
Regarding `CCc1cc(N2C(=S)N(c3ccc(C#N)c(C(F)(F)F)c3)C(=O)C2(C)C)ccc1OCCN1CCN(CC(=O)Nc2cccc(NC3CCC(=O)NC3=O)c2)CC1` (stereo not drawn) [Example 10, hydrochloride], the “Y (AR degradation efficiency, % of DMSO control)” value is listed as “* (0<Y<=25%)” and the DC50 is below 100 nM.
